From paper PMC6273125, “Antioxidant Activity of 3-[N-(Acylhydrazono)ethyl]-4-hydroxy-coumarins” (Molecules, 2016)
“Also recorded” adds a separate entry of the source.

Experiments:
[1] = Reducing activity of the DPPH stable free radical (RA%); conditions: DPPH 0.05 mM in ethanol; for RA%, 50 μM, 20 min / RA%, 50 μM, 60 min: compound 50 μM; for RA%, 100 µM, 20 min: compound 100 µM; for RA%, 100 μM, 60 min: compound 100 μM
Description: It is well known that the interaction of the synthesized 3-acetyl-4-hydroxycoumarin N-acylhydrazones 2 with the stable free radical DPPH indicates their radical scavenging ability in an iron-free system. […] Considering the antioxidant activity of 3-acetyl-4-hydroxy coumarin (1) it seems to be higher than the hydrazone derivatives 2a–l in both concentrations and in relation with the time and it is correlated with the presence of 3-acetyl and 4-hydroxy groups in the lactone ring and the possibility of tautomers (A–D) formation as shown in Scheme 2. It has been reported that 3-acetyl-4-hydroxycoumarin mainly exists in endocyclic enol form (B) in polar solvents (methanol, ethanol) and it is well known that enols show antioxidant activity e.g., it has been reported that enolic and phenolic hydroxyl groups is beneficial for curcumin to protect erythrocytes against hemin-induced hemolysis and to protect DNA against AAPH-induced oxidation. The lower results of hydrazones 2a–l, are correlated with their stereochemistry which influence their interaction with DPPH.
To an ethanolic solution of DPPH (0.05 mM) in absolute ethanol the new coumarin derivatives dissolved in DMSO were added (final concentration 50 and 100 µM). The mixture was shaken vigorously and allowed to stand for 20 min or 60 min; absorbance at 517 nm was determined spectrophotometrically against the blank and the percentage of reducing activity (RA) was calculated by the formula: RA% = [(A0 − A1)/A0] × 100 where A0 is the absorbance of blank and A1 is the absorbance of the reaction mixture.

[2] = biological target: T1, soybean lipoxygenase (LOX) (Glycine max, UniProt P08170); assay: In vitro inhibition of soybean lipoxygenase, UV-absorbance-based enzyme assay; assay type: biochemical; conditions: for IC50 / LOX IC50: soybean lipoxygenase, sodium linoleate, Tris buffer pH 9
T1 construct: purchased Sigma Chemical, Co. (St. Louis, MO, USA)
T1 sequence (P08170 1-839): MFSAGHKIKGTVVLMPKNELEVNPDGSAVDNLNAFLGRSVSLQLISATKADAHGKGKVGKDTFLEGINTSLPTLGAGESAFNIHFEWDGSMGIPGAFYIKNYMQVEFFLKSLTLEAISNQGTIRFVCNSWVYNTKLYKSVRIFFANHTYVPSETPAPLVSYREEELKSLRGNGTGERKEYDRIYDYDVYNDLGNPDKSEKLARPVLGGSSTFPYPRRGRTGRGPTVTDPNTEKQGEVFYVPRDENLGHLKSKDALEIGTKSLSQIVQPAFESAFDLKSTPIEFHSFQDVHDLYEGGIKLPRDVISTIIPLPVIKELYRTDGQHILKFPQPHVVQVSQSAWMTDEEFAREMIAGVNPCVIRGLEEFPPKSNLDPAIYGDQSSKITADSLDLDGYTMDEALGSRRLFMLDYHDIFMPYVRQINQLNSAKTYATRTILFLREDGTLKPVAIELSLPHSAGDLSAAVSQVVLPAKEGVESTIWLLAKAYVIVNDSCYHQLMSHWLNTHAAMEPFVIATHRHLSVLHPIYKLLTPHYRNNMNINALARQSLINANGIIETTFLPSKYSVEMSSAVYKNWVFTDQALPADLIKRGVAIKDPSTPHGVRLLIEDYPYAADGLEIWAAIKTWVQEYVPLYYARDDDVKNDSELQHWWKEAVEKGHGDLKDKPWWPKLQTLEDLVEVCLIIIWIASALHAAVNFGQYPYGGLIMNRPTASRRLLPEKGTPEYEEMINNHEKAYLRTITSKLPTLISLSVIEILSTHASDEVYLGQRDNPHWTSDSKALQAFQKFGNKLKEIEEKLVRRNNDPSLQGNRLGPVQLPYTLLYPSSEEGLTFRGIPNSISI
Description: The tested compounds dissolved in DMSO were incubated at room temperature with sodium linoleate (100 µL) and 200 µL of enzyme solution (1/9 × 10^−4 w/v in saline) in Tris buffer pH 9. The conversion of sodium linoleate to 13-hydroperoxylinoleic acid at 234 nm was recorded and compared with the appropriate standard inhibitor.

[3] = Inhibition of linoleic acid lipid peroxidation induced by AAPH; conditions: pH 7.4, 37 °C
Description: AAPH induced linoleic acid oxidation is based on the inhibition of lipid oxidation and provides a measure of how efficiently antioxidants protect against lipid oxidation in vitro. Oxidation of exogenous linoleic acid by a thermal free radical producer (AAPH) is followed by UV spectrophotometry in a highly-diluted sample [36, 42].
Production of conjugated diene hydroperoxide by oxidation of linoleic acid in an aqueous dispersion is monitored at 234 nm. 2,2′-Azobis(2-amidinopropane) dihydrochloride (AAPH) is used as a free radical initiator. Ten microliters of the 16 mM linoleic acid sodium salt solution was added to the UV cuvette containing 930 µL of […] phosphate buffer, pH 7.4 prethermostated at 37 °C. The oxidation reaction was initiated at 37 °C under air by the addition of 50 μL of 40 mM AAPH solution. Oxidation was carried out in the presence of aliquots (10 μL) of the tested coumarins. In the assay without antioxidant, lipid peroxidation was measured in the presence of the same level of DMSO. The rate of oxidation at 37 °C was monitored by recording the increase in absorption at 234 nm caused by conjugated diene hydroperoxides.

[4] = design: method as in PMID 1322662; conditions: cited from earlier work

Row | IC50 [2] [µM] | melting point [°C] | inhibition at 100 µM [2] [%] | LOX % inhibition ([2]; 100 µM, IC50 not determined) | Structure (SMILES) | RA%, 50 μM, 20 min [1] [%] | RA%, 50 μM, 60 min [1] [%] | RA%, 100 µM, 20 min [1] [%] | RA%, 100 μM, 60 min [1] [%] | LP 60 s, 100 μM (% inhibition of LP induced by AAPH) [3] [%] | LOX IC50 [2] | antioxidant activity [4]
1 | 62.5 ± 2.3 | 248 to 249 |  |  | CC(=O)NN=C(C)c1c(O)c2ccccc2oc1=O [2a, 3-[N-(Acetylhydrazono)ethyl]-4-hydroxycoumarin] | 5 ± 0.2 | 7 ± 0.3 | 23 ± 3.0 | 24 ± 2.0 | 100 ± 9.8 |  | 
2 | 40 ± 0.5 | 216 to 217 |  |  | CC(=NNC(=O)Cc1ccccc1)c1c(O)c2ccccc2oc1=O [2b, 3-[N-(Phenylacetylhydrazono)ethyl]-4-hydroxycoumarin] | 4 ± 0.2 | 7 ± 0.1 | 25 ± 2.0 | 29 ± 1.1 | 100 ± 5.5 |  | 
3 |  | 251 to 252 |  |  | CC(=NNC(=O)c1ccc(C)cc1)c1c(O)c2ccccc2oc1=O [2d, 3-{N-[(4′-Methylbenzoyl)hydrazono]ethyl}-4-hydroxycoumarin] | 7 ± 0.3 | 10 ± 0.2 | 27 ± 2.2 | 27 ± 1.4 | 100 ± 3.2 | do not seem to present any activity; also recorded: No ^c | 
4 | 55 ± 2.1 | 248 to 248.5 |  |  | CC(=NNC(=O)c1ccc(Cl)cc1)c1c(O)c2ccccc2oc1=O [2e, 3-{N-[(4′-Chlorobenzoyl)hydrazono]ethyl}-4-hydroxycoumarin] | 7 ± 0.2 | 10 ± 0.5 | 27 ± 0.9 | 29 ± 0.8 | 94 ± 4.8 |  | 
5 | 70 ± 4.3 | 287 to 288 |  |  | CC(=NNC(=O)c1ccc(O)cc1)c1c(O)c2ccccc2oc1=O [2f, 3-{N-[(4′-Hydroxybenzoyl)hydrazono]ethyl}-4-hydroxycoumarin] | 10 ± 0.5 | 14 ± 1.2 | 24 ± 2.2 | 26 ± 1.2 | 98 ± 2.9 |  | 
6 | 46.5 ± 2.3 | 256 to 257 |  |  | CC(=NNC(=O)c1ccc(N)cc1)c1c(O)c2ccccc2oc1=O [2g, 3-{N-[(4′-Aminobenzoyl)hydrazono]ethyl}-4-hydroxycoumarin] | 9 ± 0.3 | 16 ± 0.6 | 27 ± 0.8 | 31 ± 1.4 | 95 ± 7.2 |  | 
7 |  | 274 |  |  | CC(=NNC(=O)c1ccncc1)c1c(O)c2ccccc2oc1=O [2h, 3-[N-(Isonicotinoylhydrazono)ethyl]-4-hydroxycoumarin] | 5 ± 0.1 | 8 ± 0.2 | 27 ± 1.5 | 31 ± 1.6 | 99 ± 3.7 | do not seem to present any activity; also recorded: No ^c | 
8 | 49.5 ± 1.2 | 271 to 272 |  |  | CC(=NNC(=O)c1ccccc1O)c1c(O)c2ccccc2oc1=O [2i, 3-{N-[(2′-Hydroxybenzoyl)hydrazono]ethyl}-4-hydroxycoumarin] | 8 ± 0.5 | 10 ± 0.1 | 27 ± 0.2 | 29 ± 1.7 | 100 ± 8.2 |  | 
9 | 90 ± 5.1 | 254.5 to 255 |  |  | CC(=NNC(=O)c1ccco1)c1c(O)c2ccccc2oc1=O [2j, 3-{N-[(2′-Furoyl)hydrazono]ethyl}-4-hydroxycoumarin] | 4 ± 0.2 | 8 ± 0.3 | 25 ± 1.8 | 27 ± 0.8 | 95 ± 4.1 |  | 
10 | 43.5 ± 3.2 | 228 to 228.5 |  |  | CC(=NNC(=O)c1cccs1)c1c(O)c2ccccc2oc1=O [2k, 3-{N-[(2′-Thienylcarbonyl)hydrazono]ethyl}-4-hydroxycoumarin] | 7 ± 0.1 | 9 ± 0.2 | 25 ± 2.1 | 30 ± 2.2 | 98 ± 3.9 |  | 
11 | 35 ± 0.2 | 219 |  |  | CC(=NNC(=O)c1ccccc1[N+](=O)[O-])c1c(O)c2ccccc2oc1=O [2l, 3-{N-[(2′-Nitrobenzoyl)hydrazono]ethyl}-4-hydroxycoumarin] | 6 ± 0.3 | 10 ± 0.2 | 27 ± 2.2 | 29 ± 1.0 | 95 ± 6.2 |  | 
12 |  |  |  |  | O=c1cc(O)c2ccccc2o1 [4-hydroxy coumarin] |  |  |  |  |  |  | not found to present any antioxidant activity
13 |  |  |  |  | CC(Cc1ccc(O)c(O)c1)C(C)Cc1ccc(O)c(O)c1 (centres unmarked) [NDGA, nordihydroguairetic acid, reference compound] | 84 ± 2.0 | 83 ± 3.3 | 81 ± 5.2 | 83 ± 4.7 |  |  | 
14 |  |  |  |  | Cc1c(C)c2c(c(C)c1O)CCC(C)(C(=O)O)O2 (centres unmarked) [TROLOX, trolox, reference compound] |  |  |  |  | 63 ± 0.2 |  | 
15 |  |  | 44 | low inhibitory activity | CC(=O)c1c(O)c2ccccc2oc1=O [compound 1, 3-Acetyl-4-hydroxycoumarin] | 29 ± 0.5 | 31± 0.3 | 36± 1.3 | 36 ± 0.8 |  |  | 

Row | Structure (SMILES) | IC50 [2] [µM] | melting point [°C] | inhibition at 100 µM [2] [%] | LOX % inhibition ([2]; 100 µM, IC50 not determined) | RA%, 50 μM, 20 min [1] [%] | RA%, 50 μM, 60 min [1] [%] | RA%, 100 µM, 20 min [1] [%] | RA%, 100 μM, 60 min [1] [%] | LP 60 s, 100 μM (% inhibition of LP induced by AAPH) [3] [%] | LOX IC50 [2] | antioxidant activity [4]
16 | CC(=NNC(=O)c1ccccc1)c1c(O)c2ccccc2oc1=O [2c, 3-[N-(Benzoylhydrazono)ethyl]-4-hydroxycoumarin] | 58 ± 2.7 |  |  |  | 5 ± 0.1 | 7 ± 0.4 | 25 ± 1.2 | 30 ± 2.8 | 98 ± 5.4 |  | 
